The values that follow come from PubChem BioAssay AID624129 (Sanford-Burnham Center for Chemical Genomics, 2012).

Calls of active or inactive are those of the source. How the calls were made is not given here.

Common to all, as to assay: CXCR6 receptor antagonists, dose response, cell-based, beta-arrestin, DiscoveRx, APJ panel, uHTS hits (AID 624129)
Test [1] deals with Apelin receptor (Homo sapiens) (UniProt P35414). As to conditions: CXCR6 beta-arrestin (DiscoveRx) antagonist cell assay, APJ.
The target in test [2] is C-C chemokine receptor type 6 (Homo sapiens) (UniProt P51684). As to conditions: CXCR6 beta-arrestin (DiscoveRx) antagonist cell assay.
In test [3] the target is C-X-C chemokine receptor type 6 (Homo sapiens) (UniProt O00574). The following applies: CXCR6 beta-arrestin (DiscoveRx) antagonist cell assay.
Test [4] addresses Beta-galactosidase (Escherichia coli) (UniProt Q8VNN2). The following applies: CXCR6 beta-arrestin (DiscoveRx) antagonist cell assay, b-galactosidase.
Setting [5] is: dose range 1, mean IC50 across replicates.
Where [6] appears, read: CCR6, dose range 1, mean IC50 across replicates.
The mark [7] stands for this setting: CXCR6, dose range 1, mean IC50 across replicates.

Beta-galactosidase (Escherichia coli), sequence (Q8VNN2 whole entry, looked up): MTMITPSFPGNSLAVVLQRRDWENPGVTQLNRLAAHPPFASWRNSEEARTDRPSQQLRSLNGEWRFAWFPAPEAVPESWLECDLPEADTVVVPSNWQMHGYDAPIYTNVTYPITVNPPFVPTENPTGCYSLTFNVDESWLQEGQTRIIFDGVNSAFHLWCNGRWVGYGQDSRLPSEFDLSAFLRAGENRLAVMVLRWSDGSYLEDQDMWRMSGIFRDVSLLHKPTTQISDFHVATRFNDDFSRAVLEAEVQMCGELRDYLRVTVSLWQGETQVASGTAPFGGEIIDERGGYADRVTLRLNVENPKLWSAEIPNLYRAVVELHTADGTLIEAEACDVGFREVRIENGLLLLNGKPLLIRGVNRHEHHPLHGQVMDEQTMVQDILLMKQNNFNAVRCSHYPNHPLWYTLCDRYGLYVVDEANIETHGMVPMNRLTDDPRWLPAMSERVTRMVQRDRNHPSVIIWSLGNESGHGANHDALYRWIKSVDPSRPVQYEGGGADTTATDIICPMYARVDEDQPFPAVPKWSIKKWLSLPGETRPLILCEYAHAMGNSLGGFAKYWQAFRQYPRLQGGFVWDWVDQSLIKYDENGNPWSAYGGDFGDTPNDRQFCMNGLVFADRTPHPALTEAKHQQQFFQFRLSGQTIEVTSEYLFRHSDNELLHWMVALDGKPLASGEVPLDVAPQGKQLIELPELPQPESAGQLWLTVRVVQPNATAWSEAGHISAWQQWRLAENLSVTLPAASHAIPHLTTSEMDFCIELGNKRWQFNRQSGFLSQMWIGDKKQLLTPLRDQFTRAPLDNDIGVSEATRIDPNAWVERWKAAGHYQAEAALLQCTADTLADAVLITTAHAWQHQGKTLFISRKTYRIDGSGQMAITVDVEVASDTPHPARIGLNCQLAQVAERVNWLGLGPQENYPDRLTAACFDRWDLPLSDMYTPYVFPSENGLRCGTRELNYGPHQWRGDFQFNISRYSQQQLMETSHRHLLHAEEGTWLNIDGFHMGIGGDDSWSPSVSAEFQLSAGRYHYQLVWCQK
C-X-C chemokine receptor type 6 (Homo sapiens), sequence (O00574 whole entry, looked up): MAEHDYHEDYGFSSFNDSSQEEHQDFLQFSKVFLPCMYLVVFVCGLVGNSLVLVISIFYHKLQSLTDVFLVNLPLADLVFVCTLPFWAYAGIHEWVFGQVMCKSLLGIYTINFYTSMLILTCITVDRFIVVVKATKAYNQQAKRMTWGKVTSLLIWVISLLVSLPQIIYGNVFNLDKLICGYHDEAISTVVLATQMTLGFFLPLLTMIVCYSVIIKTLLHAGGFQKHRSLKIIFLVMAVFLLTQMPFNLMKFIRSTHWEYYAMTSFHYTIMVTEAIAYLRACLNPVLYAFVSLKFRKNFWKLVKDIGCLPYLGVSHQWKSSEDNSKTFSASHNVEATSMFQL

By IC50 is commonly meant the concentration at which inhibition is half-maximal. As for `CCOC(=O)c1c(C)oc2c1c(C=NCc1ccccn1)c(O)c1ccccc12`, the half-maximal inhibitory concentration (IC50) is 12.3 µM in test [1] (dose range 1); 12.3 µM in test [1] (setting [5]); above 80 µM in test [1] (run 2, dose range 1); above 80 µM in test [1] (run 3, dose range 1); 7.01 µM in test [2] (CCR6, dose range 1); 5.66 µM in test [2] (setting [6]). In addition, the IC50 is 4.3 µM in test [2] (CCR6, run 2, dose range 1); 4.14 µM in test [3] (CXCR6, dose range 1); 3.58 µM in test [3] (setting [7]); 1.54 µM in test [3] (CXCR6, run 1, dose range 2); 6.74 µM in test [3] (CXCR6, run 2, dose range 1); 1.9 µM in test [3] (CXCR6, run 2, dose range 2). In addition, the IC50 was > 80 µM (inactive) in test [4] (dose range 1) and above 80 µM in test [4] (setting [5]).
Usually inhibition stands for the change of the read-out against control, counted positive when it falls. A low value points to a weak effect. On to `O=C1N[C@H](Cc2ccccc2)COC(=O)[C@H](Cc2ccc(F)cc2)CC/C=C/C[C@H]1CC(=O)N(CCO)Cc1ccccc1`, for which the half-maximal inhibitory concentration (IC50) is 4.7 µM in test [1] (setting [5]); above 80 µM in test [1] (run 2, dose range 1); 4.7 µM in test [1] (run 3, dose range 1); 5.96 µM in test [2] (CCR6, dose range 1); 7.08 µM in test [2] (setting [6]); 8.19 µM in test [2] (CCR6, run 2, dose range 1). In addition, the half-inhibitory concentration (IC50) in test [3] (CXCR6, dose range 1) is 3.29 µM; in test [3] (setting [7]), 5.31 µM; in test [3] (CXCR6, run 2, dose range 1), 7.32 µM; in test [4] (dose range 1), > 80 µM (inactive); in test [4] (setting [5]), above 80 µM. In addition, the inhibition in test [3] (CXCR6, run 1, dose range 2, at 20 µM (top of the series)) was found to be 67.7%.
For the compound `COc1ccc(C(=O)/C(=C\c2ccco2)N2C=CC=CC2=C(C#N)C#N)cc1`, the IC50 was 6.33 µM in test [1] (dose range 1); 5.69 µM in test [1] (setting [5]); 5.06 µM in test [1] (run 2, dose range 1); 5.67 µM in test [1] (run 3, dose range 1); 3.27 µM in test [2] (CCR6, dose range 1); 3.72 µM in test [2] (setting [6]). The IC50 is 4.17 µM in test [2] (CCR6, run 2, dose range 1); 4.73 µM in test [3] (CXCR6, dose range 1); 4.87 µM in test [3] (setting [7]); 4.61 µM in test [3] (CXCR6, run 1, dose range 2); 5.18 µM in test [3] (CXCR6, run 2, dose range 1); 4.96 µM in test [3] (CXCR6, run 2, dose range 2). The IC50 was > 80 µM (inactive) in test [4] (dose range 1) and above 80 µM in test [4] (setting [5]).
For the compound `Oc1c(Br)cc(Br)cc1C=NCc1ccccc1`, the IC50 in test [1] (dose range 1) was 17 µM; in test [1] (setting [5]) it was 17.9 µM; in test [1] (run 2, dose range 1), 21.6 µM; in test [1] (run 3, dose range 1), 15.1 µM; in test [2] (CCR6, dose range 1), 16.8 µM; in test [2] (setting [6]), 18.6 µM. Also, the IC50 in test [2] (CCR6, run 2, dose range 1) is 20.5 µM; in test [3] (setting [7]), 18.1 µM; in test [3] (CXCR6, run 1, dose range 2) it was 10.2 µM; in test [3] (CXCR6, run 2, dose range 1), 22.9 µM; in test [3] (CXCR6, run 2, dose range 2) it was 10.6 µM; in test [4] (dose range 1) it was 28.5 µM. This compound also registered a half-maximal inhibitory concentration (IC50) in test [4] (setting [5]) of 28.5 µM. The IC50 result in test [3] (CXCR6, dose range 1) was “inactive”.
`FC(F)(F)c1cnc(NNC(=S)Nc2ccccc2Cl)c(Cl)c1`: the IC50 is above 80 µM in test [1] (setting [5]); above 80 µM in test [1] (run 2, dose range 1); above 80 µM in test [1] (run 3, dose range 1); above 80 µM in test [2] (setting [6]); above 80 µM in test [2] (CCR6, run 2, dose range 1); > 80 µM (inactive) in test [3] (CXCR6, dose range 1). The IC50 is above 80 µM in test [3] (setting [7]); above 80 µM in test [3] (CXCR6, run 2, dose range 1); > 80 µM (inactive) in test [4] (dose range 1); above 80 µM in test [4] (setting [5]). The compound further yielded an inhibition in test [3] (CXCR6, run 1, dose range 2, at 80 µM (top of the series)) of 2.4%.
On to `CCC(=O)OCCNc1cc(Sc2nccn2C)c2nonc2c1[N+](=O)[O-]`, for which the IC50 is 7.36 µM in test [1] (dose range 1); 6.04 µM in test [1] (setting [5]); 4.7 µM in test [1] (run 2, dose range 1); 6.06 µM in test [1] (run 3, dose range 1); 3.47 µM in test [2] (CCR6, dose range 1); 3.87 µM in test [2] (setting [6]). Further, the half-maximal inhibitory concentration (IC50) in test [2] (CCR6, run 2, dose range 1) is 4.26 µM; in test [3] (CXCR6, dose range 1), 4.22 µM; in test [3] (setting [7]), 4.65 µM; in test [3] (CXCR6, run 1, dose range 2) it was 4.99 µM; in test [3] (CXCR6, run 2, dose range 1) it was 4.74 µM; in test [3] (CXCR6, run 2, dose range 2) it was 4.65 µM. The results for the IC50 in test [4] (dose range 1) and in test [4] (setting [5]) were > 80 µM (inactive) and above 80 µM, respectively.
For `COc1ccccc1C(=O)NNC(=S)NC(=O)c1cccs1`, the half-maximal inhibitory concentration (IC50) in test [1] (dose range 1) was 9.86 µM; in test [1] (setting [5]), 31 µM; in test [1] (run 2, dose range 1), 13.8 µM; in test [1] (run 3, dose range 1), 69.4 µM; in test [2] (CCR6, dose range 1), 12.2 µM; in test [2] (setting [6]) it was 12.1 µM. In addition, the half-inhibitory concentration (IC50) in test [2] (CCR6, run 2, dose range 1) was 11.9 µM; in test [3] (setting [7]), 15 µM; in test [3] (CXCR6, run 1, dose range 2), 9.07 µM; in test [3] (CXCR6, run 2, dose range 1) it was 22.8 µM; in test [3] (CXCR6, run 2, dose range 2), 10.6 µM; in test [4] (dose range 1), > 80 µM (inactive). Moreover, in test [4] (setting [5]), the IC50 is above 80 µM. The IC50 entry in test [3] (CXCR6, dose range 1) was “inactive”.
